Experimental data as given in ChEMBL document CHEMBL1201862, “PubChem BioAssay data set” (2004).
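Compound exposure: 48 hours, 5 concentrations, 96-well plates. Here, GI50 denotes the concentration required for 50% inhibition of growth.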 Activity calls are given as the source filed them. Rule as the data show it: active = GI50 up to about 1.1 µM and inactive = higher.

Columns and labels:
Assay in all cases: growth of human tumour cells (NCI), 48 h
[1] = tested on: MDA-MB-435
[2] = tested on: SNB-75
[3] = tested on: NCI-H460
[4] = tested on: NCI-H23
[5] = tested on: SF-268
[6] = tested on: OVCAR-8
[7] = tested on: NCI/ADR-RES
[8] = tested on: SK-MEL-2
[9] = tested on: PC-3
[10] = tested on: SK-MEL-5
[11] = tested on: SN12C
[12] = tested on: SF-295
[13] = tested on: RPMI-8226
[14] = tested on: RXF 393
[15] = tested on: UO-31
[16] = tested on: MDA-MB-231
[17] = tested on: HT-29
[18] = tested on: IGROV-1
[19] = tested on: LOX IMVI

Measured: GI50

CSc1nc(O)c(C#N)c(-c2ccccc2)n1
inactive: [1] > 100 µM | [2] > 100 µM | [3] > 100 µM | [4] > 100 µM | [5] > 100 µM | [6] > 100 µM | [7] > 100 µM | [8] > 100 µM | [9] > 100 µM | [10] > 100 µM | [11] > 100 µM | [12] > 100 µM | [13] > 100 µM | [14] > 100 µM | [15] 78.3 µM | [16] > 100 µM | [17] > 100 µM | [18] > 100 µM

CC1(C)S[C@@H]2[C@H](NC(=O)[C@H](N)c3ccccc3)C(=O)N2[C@H]1C(=O)O [AMPICILLIN]
inactive: [1] > 100 µM | [2] > 100 µM | [3] > 100 µM | [4] > 100 µM | [5] > 100 µM | [6] > 100 µM | [7] > 100 µM | [8] > 100 µM | [9] > 100 µM | [10] > 100 µM | [19] > 100 µM | [11] > 100 µM | [12] > 100 µM | [13] > 100 µM | [15] > 100 µM | [16] > 100 µM | [17] > 100 µM | [18] > 100 µM

COC(=O)[C@H]1CO[C@H]2C/C(C)=C/CC/C(C)=C/CC[C@@]3(C)O[C@@H]3C[C@H]21
inactive: [1] 11.5 µM | [2] 14.4 µM | [3] 9.73 µM | [4] 17.5 µM | [5] 19.6 µM | [6] 14.7 µM | [7] 10.7 µM | [8] 18 µM | [9] 15.3 µM | [10] 8.2 µM | [11] 10.8 µM | [12] 17.9 µM | [13] 14.1 µM | [14] 12.9 µM | [15] 13.4 µM | [16] 10.8 µM | [17] 17.9 µM | [18] 16 µM

COc1ccc(Cc2coc3ccccc3c2=O)cc1OC
inactive: [1] 79.4 µM | [2] > 100 µM | [3] 68.1 µM | [4] 28.3 µM | [5] > 100 µM | [6] > 100 µM | [7] 36.1 µM | [8] > 100 µM | [9] 93.5 µM | [10] 21.3 µM | [19] 49.9 µM | [11] > 100 µM | [12] 47.2 µM | [13] 33.3 µM | [14] 52.4 µM | [15] 38.5 µM | [16] 99.1 µM | [17] > 100 µM | [18] > 100 µM

c1ccc2c(Cc3nnc4sc(SSc5nn6c(Cc7c[nH]c8ccccc78)nnc6s5)nn34)c[nH]c2c1
inactive: [1] 19 µM | [2] 48.2 µM | [3] 30.4 µM | [4] 19.1 µM | [5] 21.8 µM | [6] 26.4 µM | [7] 20.3 µM | [9] 19.3 µM | [10] 11.2 µM | [11] 18.7 µM | [12] 19.5 µM | [14] 18.8 µM | [15] 14.5 µM | [17] 22.5 µM | [18] 2.99 µM

CN1C(=O)C(=CNc2ccc(Cl)cc2Cl)C(=O)N(C)C1=O
inactive: [1] > 100 µM | [2] > 100 µM | [3] > 100 µM | [4] > 100 µM | [5] > 100 µM | [6] 17.9 µM | [7] > 100 µM | [8] > 100 µM | [9] > 100 µM | [10] > 100 µM | [19] > 100 µM | [11] > 100 µM | [12] > 100 µM | [13] > 100 µM | [14] > 100 µM | [15] > 100 µM | [16] > 100 µM | [17] > 100 µM | [18] > 100 µM

CC1(C)CC(=O)C2=C(C1)N(c1ccccc1)C1(O)C=CC(O)=C3C(=O)c4ccccc4C(=O)C321 (stereo not given)
inactive: [1] 20.7 µM | [2] 22.5 µM | [3] 26.3 µM | [4] 24.6 µM | [5] 20.2 µM | [6] 37.8 µM | [7] 9.84 µM | [8] 27 µM | [9] 26.2 µM | [19] 21 µM | [11] 28.7 µM | [12] 30 µM | [13] 22.3 µM | [14] 19.8 µM | [15] 19.1 µM | [16] 34.4 µM | [17] 21.2 µM | [18] 26 µM

O=c1[nH]c2c3ccccc3ccc2c2cc3c(cc12)OCO3
inactive: [2] 31.4 µM | [3] > 100 µM | [4] > 100 µM | [5] 98.6 µM | [6] > 100 µM | [8] > 100 µM | [10] 43.5 µM | [19] > 100 µM | [11] > 100 µM | [12] > 100 µM | [13] 72.8 µM | [14] 28.8 µM | [15] 39.4 µM | [17] > 100 µM | [18] > 100 µM

CC(C)=CCC/C(C)=C/CC/C(C)=C/C1CCC(=O)C1(C)C (stereo not given)
inactive: [2] 28.5 µM | [3] 17.5 µM | [4] 20.3 µM | [5] 17.1 µM | [6] 19.6 µM | [8] 17.4 µM | [10] 15.1 µM | [19] 15.3 µM | [11] 16.2 µM | [12] 18.3 µM | [13] 20 µM | [14] 22.1 µM | [15] 17 µM | [17] 17.5 µM | [18] 19.1 µM

CCCCCCC(C)CC(CCCCCC)NCCOC(=O)c1ccc([N+](=O)[O-])cc1 (stereo not given)
inactive: [2] 16 µM | [4] 14.6 µM | [5] 13.8 µM | [6] 5.66 µM | [7] 13.4 µM | [8] 14.1 µM | [10] 9.68 µM | [19] 4.12 µM | [11] 10.7 µM | [12] 15.2 µM | [15] 10.4 µM | [16] 6.71 µM | [17] 4.04 µM | [18] 12.3 µM

C[C@]12CCc3nn(-c4ccccc4)nc3C1CC[C@@H]1C2CC[C@]2(C)C(=O)CCC12 (stereo not given in full)
inactive: [2] > 100 µM | [3] > 100 µM | [4] > 100 µM | [5] > 100 µM | [6] 94.2 µM | [8] > 100 µM | [10] > 100 µM | [19] 82.2 µM | [11] > 100 µM | [12] > 100 µM | [13] > 100 µM | [14] > 100 µM | [15] > 100 µM | [17] > 100 µM | [18] > 100 µM

COc1ccc(Oc2cccc(/C=C3/C(=O)Nc4ccccc43)c2)cc1
inactive: [1] 3.58 µM | [2] 15 µM | [3] 11.3 µM | [4] 3.23 µM | [5] 11.4 µM | [6] 16.9 µM | [7] 4.91 µM | [8] 11.1 µM | [9] 5.98 µM | [10] 2.62 µM | [11] 10.9 µM | [12] 7.01 µM | [14] 3.94 µM | [15] 6.82 µM | [17] 3.73 µM | [18] 7.91 µM
